Counter-ions that a name gives are not always drawn.
Columns and labels:
[1] = test system: Blood Pressure of Anesthetized Rats; test: Blood pressure bioassay in urethane-anesthetized rats, peptides injected intravenously; type: in vivo, male Sprague-Dawley rats; parameters: key to Duration of blood pressure effect: +: short-lasting blood pressure elevation at all doses; ++: short-lasting blood pressure elevation at low doses; +++: long-lasting elevation at low doses; details: i.v.; for Maximal increase in blood pressure mm Hg diastolic / Maximal increase in blood pressure mm Hg systolic: over the dose-range tested (nmol/kg)
Protocol: Bioassays were conducted on male Sprague-Dawley rats, weighing 250-450 g, and anesthetized by an intraperitoneal injection of a 25 percent urethane solution (1.25 g/kg). The left femoral artery was cannulated with PE 50 polyethylene tubing for monitoring of blood pressure with a pressure transducer RP-1500 (Narco Biosystems). Injections of peptides or drugs were made via a PE 10 tubing into the left femoral vein. Respiration was measured by an impedance method by which the respiratory movements of the chest are registered. The method gives indirect information on respiration amplitude. Heart and respiration frequency were obtained by using biotachometer couplers which measure mean frequencies. Body temperature was measured in the rectum with a thermistor (Yellow Springs Instruments) and maintained between 36.5° and 37.5° C. Peptides or drugs were dissolved in sterile H2 O and the volumes injected intravenously were usually 0.1 ml and never exceeded 0.2 ml.

[2] = test system: pressor activity of FMRF-NH2 in urethane-anesthetized rats; test: Pressor activity of FMRF-NH2 after pretreatment with vasodepressor drugs and pharmacologic antagonists; type: in vivo; details: for Effect of drug pretreatment on pressor activity of FMRF-NH2: FMRF-NH2 challenge 16, 128, 512 nmol/kg i.v. 5-10 minutes after drug pretreatment; for Attenuation of the FMRFamide pressor effect: FMRF-NH2 challenge 16, 128, 512 nmol/kg i.v. after pretreatment with drugs interacting with the α-adrenergic system; for Effect of lower doses of drug on FMRFamide pressor effect: effective at blocking norepinephrine hydrochloride 3 to 15 μg/kg
[3] = test system: pressor effects of angiotensin II, Arg^8 -vasopressin, norepinephrine hydrochloride; test: Effectiveness of the antagonists against their respective pressor agonists; type: in vivo, rats; details: for Blocking of the pressor effects of norepinephrine hydrochloride: lower doses of drug, norepinephrine hydrochloride 3 to 15 μg/kg

`N[C@@H](Cc1ccccc1)C(=O)O` [F-- OH, phenylalanine] was tested, and the “Pressor activity (blood pressure elevation), in words” value (“Pressor activity … in words” below) [1] was “Neither arginine nor phenylalanine nor phenylalanine-amide were active”, the “Maximal increase in blood pressure mm Hg diastolic” value [1] was 0 mm Hg and the “Maximal increase in blood pressure mm Hg systolic” value [1] was 0 mm Hg.

In the case of `NC(=O)[C@@H](N)Cc1ccccc1` [F--NH2, phenylalanine-amide], the “Pressor activity … in words” value [1] is reported as “Neither arginine nor phenylalanine nor phenylalanine-amide were active”, the “Maximal increase in blood pressure mm Hg diastolic” value [1] is reported as 0 mm Hg and the “Maximal increase in blood pressure mm Hg systolic” value [1] is reported as 0 mm Hg.

With `CC(COc1ccccc1)N(CCCl)Cc1ccccc1` (stereo not drawn) [Phenoxybenzamine hydrochloride] the “Effect of drug pretreatment on pressor activity of FMRF-NH2” value (“Effect of drug pretreatment” below) [2] was “no effect”.

With `N=C(N)NCCC[C@H](N)C(=O)O` [R--OH, arginine] the “Pressor activity … in words” value [1] was “Neither arginine nor phenylalanine nor phenylalanine-amide were active”, the “Maximal increase in blood pressure mm Hg diastolic” value [1] was 0 mm Hg and the “Maximal increase in blood pressure mm Hg systolic” value [1] was 0 mm Hg.

`CN1[C@@H]2CC[C@H]1C[C@@H](OC(=O)C(CO)c1ccccc1)C2` (stereo partly drawn) [atropine] was tested, and the “Effect of drug pretreatment” value [2] was “did not modify”.

`Clc1cccc(Cl)c1N=C1NCCN1` [clonidine hydrochloride] was tested, and the “Attenuation of the FMRFamide pressor effect” value (“Attenuation” below) [2] was 30-75%.

For `CN1CCC(=C2c3ccccc3C=Cc3ccccc32)CC1` [cyproheptadine], the “Effect of drug pretreatment” value [2] was “did not modify”.

For `CN1C[C@H](C(=O)N[C@]2(C)O[C@@]3(O)[C@@H]4CCCN4C(=O)[C@H](Cc4ccccc4)N3C2=O)C[C@@H]2c3cccc4[nH]cc(c34)C[C@H]21` [dihydroergotamine mesylate], the “Attenuation” value [2] was 30-75%.

`C[N+](C)(C)CCCCCC[N+](C)(C)C` [hexamethonium bromide] was tested, and the “Effect of drug pretreatment” value [2] was “not blocked”.

`C=CCN1CC[C@]23c4c5ccc(O)c4O[C@H]2C(=O)CC[C@@]3(O)[C@H]1C5.Cl` [nalozone hydrochloride] was tested, and the “Effect of drug pretreatment” value [2] was “did not modify”.

For `Cc1ccc(N(CC2=NCCN2)c2cccc(O)c2)cc1` [phentolamine hydrochloride], the “Blocking of the pressor effects of norepinephrine hydrochloride” value [3] was “effective at blocking”, the “Attenuation” value [2] was 30-75% and the “Effect of lower doses of drug on FMRFamide pressor effect” value [2] was “did not affect”.

`CCCO` [propanol hydrochloride] was tested, and the “Effect of drug pretreatment” value [2] was “not blocked”.

In the case of `COC(=O)[C@H]1[C@H]2C[C@@H]3c4[nH]c5cc(OC)ccc5c4CCN3C[C@H]2C[C@@H](OC(=O)c2cc(OC)c(OC)c(OC)c2)[C@@H]1OC` [reserpine], the “Effect of drug pretreatment” value [2] is reported as “did not modify”.

For `CNCC(=O)N[C@@H](CCCN=C(N)N)C(=O)N[C@H](C(=O)N[C@@H](Cc1ccc(O)cc1)C(=O)N[C@H](C(=O)N[C@@H](Cc1cnc[nH]1)C(=O)N1CCC[C@H]1C(=O)N[C@@H](C)C(=O)O)C(C)C)C(C)C` [saralasin], the “Antagonism of angiotensin II” value ([3]; agonist angiotensin II 2 μg/kg) was “effective antagonists” and the “Effect of drug pretreatment” value [2] was “not blocked”.

`c1ccc(CC2=NCCN2)cc1` [tolazoline hydrochloride] was tested, and the “Blocking of the pressor effects of norepinephrine hydrochloride” value [3] was “effective at blocking”, the “Attenuation” value [2] was 30-75% and the “Effect of lower doses of drug on FMRFamide pressor effect” value [2] was “did not affect”.

“(1-(β-mercapto-β,β-cyclopentamethylene propionic acid), 2-(0-methyl)tyrosine)Arg^8 -Vasopressin” was tested, and the “Antagonism of Arg^8 -vasopressin” value ([3]; agonist Arg^8 -vasopressin 1 μg/kg) was “effective antagonists” and the “Effect of drug pretreatment” value [2] was “not blocked”.

For “gamma 1-melanotropic stimulating hormone [q MSH]”, the “Duration of blood pressure effect” value [1] was “+++”, the “Pressor activity … in words” value [1] was “exhibits pressor activity” and the “Maximal increase in blood pressure mm Hg diastolic” value [1] was 70 mm Hg. For the same molecule, the “Maximal increase in blood pressure mm Hg systolic” value [1] was 90 mm Hg.

With nitroprusside the “Effect of drug pretreatment” value [2] was “did not modify”.
